Experimental data taken from PubChem BioAssay AID1259407 (Chemical Carcinogenesis Research Information System (CCRIS), 2018).
The source made the active and inactive calls. How the calls were made is not given here.

Tested on: CCRIS mutagenicity, Ames/micronucleus/aberration tests
Experiment: CCRIS mutagenicity studies
[1] = Test System: AMES SALMONELLA TYPHIMURIUM, Strain/Indicator: TA98, Metabolic Activation: NONE, Method: STANDARD PLATE
[2] = Test System: AMES SALMONELLA TYPHIMURIUM, Strain/Indicator: TA100, Metabolic Activation: NONE, Method: STANDARD PLATE
[3] = Test System: AMES SALMONELLA TYPHIMURIUM, Strain/Indicator: TA98, Metabolic Activation: RAT, LIVER, S-9, AROCLOR 1254, Method: STANDARD PLATE
[4] = Test System: AMES SALMONELLA TYPHIMURIUM, Strain/Indicator: TA100, Metabolic Activation: NONE, Method: PREINCUBATION
[5] = Test System: AMES SALMONELLA TYPHIMURIUM, Strain/Indicator: TA100, Metabolic Activation: RAT, LIVER, S-9, AROCLOR 1254, Method: STANDARD PLATE
[6] = Test System: AMES SALMONELLA TYPHIMURIUM, Strain/Indicator: TA1535, Metabolic Activation: NONE, Method: STANDARD PLATE
[7] = Test System: AMES SALMONELLA TYPHIMURIUM, Strain/Indicator: TA1535, Metabolic Activation: RAT, LIVER, S-9, AROCLOR 1254, Method: STANDARD PLATE
[8] = Test System: AMES SALMONELLA TYPHIMURIUM, Strain/Indicator: TA1537, Metabolic Activation: NONE, Method: STANDARD PLATE
[9] = Test System: AMES SALMONELLA TYPHIMURIUM, Strain/Indicator: TA1537, Metabolic Activation: RAT, LIVER, S-9, AROCLOR 1254, Method: STANDARD PLATE
[10] = Test System: AMES SALMONELLA TYPHIMURIUM, Strain/Indicator: TA1538, Metabolic Activation: NONE, Method: STANDARD PLATE
[11] = Test System: AMES SALMONELLA TYPHIMURIUM, Strain/Indicator: TA1538, Metabolic Activation: RAT, LIVER, S-9, AROCLOR 1254, Method: STANDARD PLATE

CCOP(=S)(OCC)SCCl
mutagenic call (Test System: AMES SALMONELLA TYPHIMURIUM, Strain/Indicator: TA98, Metabolic Activation: NONE): inactive; negative | mutagenic call [1]: inactive; negative | mutagenic call (Test System: AMES SALMONELLA TYPHIMURIUM, Strain/Indicator: TA98, Metabolic Activation: RAT, LIVER, S-9, SODIUM PHENOBARBITAL, Method: STANDARD PLATE): inactive; negative | mutagenic call (Test System: AMES SALMONELLA TYPHIMURIUM, Strain/Indicator: TA98, Metabolic Activation: S-9): inactive; negative | mutagenic call (Test System: AMES SALMONELLA TYPHIMURIUM, Strain/Indicator: TA100, Metabolic Activation: NONE): inactive; negative | mutagenic call [2]: inactive; negative | mutagenic call (Test System: AMES SALMONELLA TYPHIMURIUM, Strain/Indicator: TA100, Metabolic Activation: RAT, LIVER, S-9, SODIUM PHENOBARBITAL, Method: STANDARD PLATE): inactive; negative | mutagenic call (Test System: AMES SALMONELLA TYPHIMURIUM, Strain/Indicator: TA100, Metabolic Activation: S-9): inactive; negative | mutagenic call (Test System: E. COLI, Strain/Indicator: WP2, Metabolic Activation: NONE): inactive; negative | mutagenic call (Test System: E. COLI, Strain/Indicator: WP2, Metabolic Activation: RAT, LIVER, S-9, SODIUM PHENOBARBITAL, Method: STANDARD PLATE): inactive; negative | mutagenic call (Test System: E. COLI, Strain/Indicator: WP2, Metabolic Activation: S-9): inactive; negative | mutagenic call (Test System: E. COLI, Strain/Indicator: WP2 UVRA, Metabolic Activation: NONE): inactive; negative | mutagenic call (Test System: E. COLI, Strain/Indicator: WP2 UVRA, Metabolic Activation: RAT, LIVER, S-9, SODIUM PHENOBARBITAL, Method: STANDARD PLATE): inactive; negative | mutagenic call (Test System: E. COLI, Strain/Indicator: WP2 UVRA, Metabolic Activation: S-9): inactive; negative

O=C1c2ccccc2C(=O)c2c(O)ccc(O)c21
mutagenic call (End Point: IN VITRO CHROMOSOMAL ABERRATIONS, Test System: CHL CELLS, Metabolic Activation: NONE): active; positive (structural changes); authors report equivocal results for ploidy chang | mutagenic call (Test System: AMES SALMONELLA TYPHIMURIUM, Strain/Indicator: TA98, Metabolic Activation: NONE, Method: PREINCUBATION): inactive; negative | mutagenic call (Test System: AMES SALMONELLA TYPHIMURIUM, Strain/Indicator: TA98, Metabolic Activation: RAT LIVER S-9, PHENOBARBITAL AND BETA-NAPHTHOFLAVONE, Method: PREINCUBATION): inactive; negative | mutagenic call [3]: inactive; negative | mutagenic call (Test System: AMES SALMONELLA TYPHIMURIUM, Strain/Indicator: TA98, Metabolic Activation: RAT, LIVER, S-9, PCB, Method: PREINCUBATION): inactive; negative | mutagenic call [4]: inactive; negative | mutagenic call [2]: inactive; negative | mutagenic call (Test System: AMES SALMONELLA TYPHIMURIUM, Strain/Indicator: TA100, Metabolic Activation: RAT LIVER S-9, PHENOBARBITAL AND BETA-NAPHTHOFLAVONE, Method: PREINCUBATION): inactive; negative | mutagenic call [5]: inactive; negative | mutagenic call (Test System: AMES SALMONELLA TYPHIMURIUM, Strain/Indicator: TA100, Metabolic Activation: RAT, LIVER, S-9, PCB, Method: PREINCUBATION): inactive; negative | mutagenic call (Test System: AMES SALMONELLA TYPHIMURIUM, Strain/Indicator: TA102, Metabolic Activation: NONE, Method: PREINCUBATION): active; positive | mutagenic call (Test System: AMES SALMONELLA TYPHIMURIUM, Strain/Indicator: TA102, Metabolic Activation: RAT, LIVER, S-9, Method: PREINCUBATION): active; positive | mutagenic call (Test System: AMES SALMONELLA TYPHIMURIUM, Strain/Indicator: TA1535, Metabolic Activation: NONE, Method: PREINCUBATION): inactive; negative | mutagenic call [6]: inactive; negative | mutagenic call (Test System: AMES SALMONELLA TYPHIMURIUM, Strain/Indicator: TA1535, Metabolic Activation: RAT LIVER S-9, PHENOBARBITAL AND BETA-NAPHTHOFLAVONE, Method: PREINCUBATION): inactive; negative | mutagenic call [7]: inactive; negative | mutagenic call (Test System: AMES SALMONELLA TYPHIMURIUM, Strain/Indicator: TA1537, Metabolic Activation: NONE, Method: PREINCUBATION): active; positive | mutagenic call [8]: active; positive | mutagenic call (Test System: AMES SALMONELLA TYPHIMURIUM, Strain/Indicator: TA1537, Metabolic Activation: RAT LIVER S-9, PHENOBARBITAL AND BETA-NAPHTHOFLAVONE, Method: PREINCUBATION): active; positive | mutagenic call [9]: active; positive | mutagenic call [10]: inactive; negative | mutagenic call [11]: inactive; negative | mutagenic call (Test System: E.COLI, Strain/Indicator: WP2UVRA, Metabolic Activation: NONE, Method: PREINCUBATION): inactive; negative | mutagenic call (Test System: E.COLI, Strain/Indicator: WP2UVRA, Metabolic Activation: RAT LIVER S-9, PHENOBARBITAL AND BETA-NAPHTHOFLAVONE, Method: PREINCUBATION): inactive; negative

CC1=Nc2ccccc2C1(C)C
mutagenic call (Test System: AMES SALMONELLA TYPHIMURIUM, Strain/Indicator: TA98, Metabolic Activation: HAMSTER, LIVER, S-9, AROCLOR 1254, Method: STANDARD PLATE): inactive; negative | mutagenic call [1]: inactive; negative | mutagenic call [3]: inactive; negative | mutagenic call (Test System: AMES SALMONELLA TYPHIMURIUM, Strain/Indicator: TA100, Metabolic Activation: HAMSTER, LIVER, S-9, AROCLOR 1254, Method: STANDARD PLATE): inactive; negative | mutagenic call [2]: inactive; negative | mutagenic call [5]: inactive; negative | mutagenic call (Test System: AMES SALMONELLA TYPHIMURIUM, Strain/Indicator: TA1535, Metabolic Activation: HAMSTER, LIVER, S-9, AROCLOR 1254, Method: STANDARD PLATE): inactive; negative | mutagenic call [6]: inactive; negative | mutagenic call [7]: inactive; negative | mutagenic call (Test System: AMES SALMONELLA TYPHIMURIUM, Strain/Indicator: TA1537, Metabolic Activation: HAMSTER, LIVER, S-9, AROCLOR 1254, Method: STANDARD PLATE): inactive; negative | mutagenic call [8]: inactive; negative | mutagenic call [9]: inactive; negative | mutagenic call (Test System: AMES SALMONELLA TYPHIMURIUM, Strain/Indicator: TA1538, Metabolic Activation: HAMSTER, LIVER, S-9, AROCLOR 1254, Method: STANDARD PLATE): inactive; negative | mutagenic call [10]: inactive; negative | mutagenic call [11]: inactive; negative | mutagenic call (Test System: MOUSE LYMPHOMA, Strain/Indicator: L5178Y (TK+/TK-), Metabolic Activation: NONE, Method: SUSPENSION/PLATE): inactive; positive. reevaluation of results: negative | mutagenic call (Test System: MOUSE LYMPHOMA, Strain/Indicator: L5178Y (TK+/TK-), Metabolic Activation: RAT, LIVER, S-9, AROCLOR 1254, Method: SUSPENSION/PLATE): active; positive. reevaluation of results: inconclusive

CC1(C)C[C@H]2C=C(C=O)[C@]34C[C@]3(C(=O)O[C@@H]4O)[C@H]2C1
mutagenic call (Test System: AMES SALMONELLA TYPHIMURIUM, Strain/Indicator: TA98, Metabolic Activation: NONE, Method: SPOT TEST): active; positive | mutagenic call [1]: active; positive | mutagenic call (Test System: AMES SALMONELLA TYPHIMURIUM, Strain/Indicator: TA100, Metabolic Activation: NONE, Method: SPOT TEST): inactive; negative | mutagenic call [2]: active; positive | mutagenic call (Test System: AMES SALMONELLA TYPHIMURIUM, Strain/Indicator: TA1535, Metabolic Activation: NONE, Method: SPOT TEST): inactive; negative | mutagenic call (Test System: AMES SALMONELLA TYPHIMURIUM, Strain/Indicator: TA1538, Metabolic Activation: NONE, Method: SPOT TEST): inactive; negative | mutagenic call (Test System: AMES SALMONELLA TYPHIMURIUM, Strain/Indicator: TA2637, Metabolic Activation: NONE, Method: STANDARD PLATE): active; positive | mutagenic call (Test System: CHINESE HAMSTER V-79, Strain/Indicator: V-79/6-THIOGUANINE (HGPRT), Metabolic Activation: NONE): inactive; negative

N[C@@H](Cc1c[nH]c2ccc(O)cc12)C(=O)O
mutagenic call [4]: inactive; negative

c1ccc2c3c4c(cc5ccccc5c4cc2c1)C1=C3CCCC1
mutagenic call (Test System: AMES SALMONELLA TYPHIMURIUM, Strain/Indicator: TA100, Metabolic Activation: RAT, LIVER, S-9, 3-METHYLCHOLANTHRENE, Method: STANDARD PLATE): active; positive
